Literature values in US6403361B1, “Enzymatic method for modification of recombinant polypeptides” (Restoragen, Inc., priority 1993, dated 2002).
Where two headings read alike, the source gives them in different places.

Key:
Adenosine deaminase = target: T1, Adenosine deaminase (Homo sapiens, UniProt P00813); settings: E is times ten to the negative exponent
T1 sequence (P00813 1-363): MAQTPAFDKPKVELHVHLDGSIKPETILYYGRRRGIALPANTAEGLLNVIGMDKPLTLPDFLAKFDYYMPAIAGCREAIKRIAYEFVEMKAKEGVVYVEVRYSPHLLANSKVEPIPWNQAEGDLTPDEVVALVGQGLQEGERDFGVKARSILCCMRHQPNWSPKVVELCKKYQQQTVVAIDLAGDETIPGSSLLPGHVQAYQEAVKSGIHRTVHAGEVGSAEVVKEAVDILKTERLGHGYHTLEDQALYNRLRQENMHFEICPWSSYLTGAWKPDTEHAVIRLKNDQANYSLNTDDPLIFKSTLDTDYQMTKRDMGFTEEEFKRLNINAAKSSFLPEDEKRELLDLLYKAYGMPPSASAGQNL

Cholesterol esterase = target: T2, Cholesterol esterase (Homo sapiens, UniProt P19835); settings: Ref. 8 (Sutton et al., BBRC, 134, 386-392 (1986)); E is times ten to the negative exponent
T2 sequence (P19835 21-753): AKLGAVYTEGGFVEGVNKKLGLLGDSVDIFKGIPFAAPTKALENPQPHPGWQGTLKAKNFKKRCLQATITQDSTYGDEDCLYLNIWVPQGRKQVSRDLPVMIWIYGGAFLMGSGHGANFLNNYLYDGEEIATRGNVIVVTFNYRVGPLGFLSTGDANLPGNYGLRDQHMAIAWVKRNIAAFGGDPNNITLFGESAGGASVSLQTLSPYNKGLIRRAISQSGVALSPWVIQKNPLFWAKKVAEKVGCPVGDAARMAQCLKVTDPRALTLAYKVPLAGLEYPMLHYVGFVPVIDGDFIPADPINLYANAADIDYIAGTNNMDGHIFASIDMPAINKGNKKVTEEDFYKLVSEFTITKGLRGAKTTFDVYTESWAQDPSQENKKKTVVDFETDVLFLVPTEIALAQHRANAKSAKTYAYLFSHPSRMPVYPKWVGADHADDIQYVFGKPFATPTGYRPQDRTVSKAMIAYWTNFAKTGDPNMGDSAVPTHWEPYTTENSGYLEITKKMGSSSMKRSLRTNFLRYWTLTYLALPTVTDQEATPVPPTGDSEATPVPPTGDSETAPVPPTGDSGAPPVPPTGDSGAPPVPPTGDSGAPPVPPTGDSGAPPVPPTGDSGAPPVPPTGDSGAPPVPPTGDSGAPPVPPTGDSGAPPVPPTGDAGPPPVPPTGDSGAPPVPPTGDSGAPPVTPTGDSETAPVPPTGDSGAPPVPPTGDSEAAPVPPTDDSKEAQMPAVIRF

Compound: OC[C@H]1O[C@@H](n2cnc3c2N=CNC[C@H]3O)[C@H](O)[C@@H]1O [Coformycin]
- Kd (Adenosine deaminase; Ref. 1 (Cha et al., Biochemical Pharm., 24, 2187-2197)): < 0.12 nM

Compound: CCCCCCC(C(C)O)n1cnc2c(N)ncnc21 (stereo not drawn) [erythro-9-(2-hydroxy-3 nonyl) adenine]
- Kd (Adenosine deaminase; Ref. 2 (Agarwal et al., Biochemical Pharm., 26, 354-367 (1977))): 1.6 nM

Compound: Borinic acid
- Kd (Cholesterol esterase): 0.1 nM
